Data published in patent publication US8637509B2, “Azaindazoles” (GlaxoSmithKline LLC, priority 2010, dated 2014).

Each compound was assayed against T1, EZH2 (Homo sapiens, UniProt Q15910) (assay: EZH2 methyltransferase SPA assay (3H-SAM, Hela nucleosomes)). Details: not given.
T1 construct: GRITS37108
Type: biochemical

T1 sequence (Q15910 whole entry): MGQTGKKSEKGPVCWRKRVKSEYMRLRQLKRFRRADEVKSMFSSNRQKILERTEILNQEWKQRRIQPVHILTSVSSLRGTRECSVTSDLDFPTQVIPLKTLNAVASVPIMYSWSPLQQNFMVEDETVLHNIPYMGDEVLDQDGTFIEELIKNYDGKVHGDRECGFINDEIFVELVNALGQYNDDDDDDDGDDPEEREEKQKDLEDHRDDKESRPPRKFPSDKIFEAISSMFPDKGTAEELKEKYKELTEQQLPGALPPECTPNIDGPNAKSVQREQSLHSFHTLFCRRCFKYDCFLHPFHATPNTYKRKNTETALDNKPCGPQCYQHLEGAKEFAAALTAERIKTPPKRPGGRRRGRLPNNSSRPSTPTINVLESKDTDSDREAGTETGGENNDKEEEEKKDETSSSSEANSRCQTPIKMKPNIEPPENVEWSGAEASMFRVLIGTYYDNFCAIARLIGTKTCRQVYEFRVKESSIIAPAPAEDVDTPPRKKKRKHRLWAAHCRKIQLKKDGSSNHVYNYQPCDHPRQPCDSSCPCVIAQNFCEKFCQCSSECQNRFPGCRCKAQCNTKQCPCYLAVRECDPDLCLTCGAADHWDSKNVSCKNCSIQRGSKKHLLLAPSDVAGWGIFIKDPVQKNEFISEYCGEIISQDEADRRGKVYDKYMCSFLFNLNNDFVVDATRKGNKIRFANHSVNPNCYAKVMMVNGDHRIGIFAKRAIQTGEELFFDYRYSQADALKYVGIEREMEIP
T1 sequence (O75530 whole entry partner): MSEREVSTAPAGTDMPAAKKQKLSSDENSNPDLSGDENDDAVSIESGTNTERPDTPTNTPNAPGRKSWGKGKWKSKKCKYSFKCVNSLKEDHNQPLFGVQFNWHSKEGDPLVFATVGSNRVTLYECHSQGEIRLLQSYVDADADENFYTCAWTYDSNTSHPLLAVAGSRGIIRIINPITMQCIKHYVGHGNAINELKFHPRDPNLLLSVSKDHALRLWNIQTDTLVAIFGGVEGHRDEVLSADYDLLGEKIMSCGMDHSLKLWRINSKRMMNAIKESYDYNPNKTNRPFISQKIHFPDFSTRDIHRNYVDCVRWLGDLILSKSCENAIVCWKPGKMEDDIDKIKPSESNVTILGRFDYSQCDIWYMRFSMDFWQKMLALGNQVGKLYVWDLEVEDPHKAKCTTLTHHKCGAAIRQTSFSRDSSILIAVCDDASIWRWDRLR
T1 sequence (Q15022 whole entry partner): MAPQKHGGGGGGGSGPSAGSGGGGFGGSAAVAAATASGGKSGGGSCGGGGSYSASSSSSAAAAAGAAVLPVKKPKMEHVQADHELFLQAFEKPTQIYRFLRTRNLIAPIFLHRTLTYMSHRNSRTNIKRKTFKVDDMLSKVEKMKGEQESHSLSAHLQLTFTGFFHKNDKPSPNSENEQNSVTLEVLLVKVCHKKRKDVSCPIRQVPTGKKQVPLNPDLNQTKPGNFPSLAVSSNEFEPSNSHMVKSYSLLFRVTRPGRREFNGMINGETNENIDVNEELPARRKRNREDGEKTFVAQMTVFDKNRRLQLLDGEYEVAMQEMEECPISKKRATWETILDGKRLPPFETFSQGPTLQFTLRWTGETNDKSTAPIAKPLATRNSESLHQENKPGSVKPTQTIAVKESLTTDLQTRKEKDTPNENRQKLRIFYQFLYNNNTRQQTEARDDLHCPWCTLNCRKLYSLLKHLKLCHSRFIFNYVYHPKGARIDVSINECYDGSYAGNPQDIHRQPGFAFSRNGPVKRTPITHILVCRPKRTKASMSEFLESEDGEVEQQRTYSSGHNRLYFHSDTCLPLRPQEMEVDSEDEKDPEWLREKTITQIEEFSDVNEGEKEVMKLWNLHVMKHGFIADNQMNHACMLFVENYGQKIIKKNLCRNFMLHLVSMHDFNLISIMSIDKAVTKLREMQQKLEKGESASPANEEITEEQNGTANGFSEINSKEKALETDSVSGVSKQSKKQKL

| IC50 [nM] | Structure (SMILES) |
| --- | --- |
| 4650 | Cc1[nH]c(=O)c(CNC(=O)c2cc(-c3ccncc3)nc3c2cnn3C(C)C)c(C)c1F [Ex 20, N-[(5-Fluoro-4,6-dimethyl-2-oxo-1,2-dihydro-3-pyridinyl)methyl]-1-(1-methylethyl)-6-(4-pyridinyl]-1H-pyrazolo[3,4-b]pyridine-4-carboxamide] |

Same assay, conditions: read-out: IC50

| IC50 [nM] | Structure (SMILES) |
| --- | --- |
| 57 | Cc1cc(C)c(CNC(=O)c2cc(-c3cnc4c(c3)CCC(=O)N4)nc3c2cnn3C(C)C)c(=O)[nH]1 [Ex 96, N-[(4,6-Dimethyl-2-oxo-1,2-dihydro-3-pyridinyl)methyl]-1-(1-methylethyl)-6-(7-oxo-1,5,6,7-tetrahydro-1,8-naphthyridin-3-yl)-1H-pyrazolo[3,4-b]pyridine-4-carboxamide] |
| 234 | Cc1cc(C)c(CNC(=O)c2cc(C#CC(C)(C)O)nc3c2cnn3C(C)C)c(=O)[nH]1 [Ex 29, N-[(4,6-Dimethyl-2-oxo-1,2-dihydro-3-pyridinyl)methyl]-6-(3-hydroxy-3-methyl-1-butyn-1-yl)-1-(1-methylethyl)-1H-pyrazolo[3,4-b]pyridine-4-carboxamide] |
| 96 | CNC(=O)c1ccc(-c2cc(C(=O)NCc3c(C)cc(C)[nH]c3=O)c3cnn(C(C)C)c3n2)cn1 [Ex 63, N-[(4,6-Dimethyl-2-oxo-1,2-dihydro-3-pyridinyl)methyl]-6-[6-[(methylamino)carbonyl]-3-pyridinyl]-1-(1-methylethyl)-1H-pyrazolo[3,4-b]pyridine-4-carboxamide] |
| 270 | Cc1cc(C)c(CNC(=O)c2cc(-c3ccc(-c4cn[nH]c4)cc3)nc3c2cnn3C(C)C)c(=O)[nH]1 [Ex 120, N-[(4,6-Dimethyl-2-oxo-1,2-dihydro-3-pyridinyl)methyl]-1-(1-methylethyl)-6-[4-(1H-pyrazol-4-yl)phenyl]-1H-pyrazolo[3,4-b]pyridine-4-carboxamide] |
| 86 | Cc1cc(C)c(CNC(=O)c2cc(-c3ccc(N(C)C)nc3)nc3c2cnn3C(C)C)c(=O)[nH]1 [Ex 41, 6-[6-(Dimethylamino)-3-pyridinyl]-N-[(4,6-dimethyl-2-oxo-1,2-dihydro-3-pyridinyl)methyl]-1-(1-methylethyl)-1H-pyrazolo[3,4-b]pyridine-4-carboxamide] |
| 207 | Cc1cc(C)c(CNC(=O)c2cc(C3CC3)nc3c2c(C)nn3C(C)C2CC2)c(=O)[nH]1 (stereo not drawn) [Ex 109, 6-Cyclopropyl-1-(1-cyclopropylethyl)-N-[(4,6-dimethyl-2-oxo-1,2-dihydro-3-pyridinyl)methyl]-3-methyl-1H-pyrazolo[3,4-b]pyridine-4-carboxamide] |
| 179 | Cc1cc(C2CCCCC2)c(CNC(=O)c2cc(-c3ccncc3)nc3c2cnn3C(C)C)c(=O)[nH]1 [Ex 15, N-[(4-Cyclohexyl-6-methyl-2-oxo-1,2-dihydro-3-pyridinyl)methyl]-1-(1-methylethyl)-6-(4-pyridinyl)-1H-pyrazolo[3,4-b]pyridine-4-carboxamide] |
| 112 | Cc1cc(C)c(CNC(=O)c2cc(-c3cncc(S(C)(=O)=O)c3)nc3c2cnn3C(C)C)c(=O)[nH]1 [Ex 61, N-[(4,6-Dimethyl-2-oxo-1,2-dihydro-3-pyridinyl)methyl]-1-(1-methylethyl)-6-[5-(methylsulfonyl)-3-pyridinyl]-1H-pyrazolo[3,4-b]pyridine-4-carboxamide] |
| 231 | Cc1cc(C)c(CNC(=O)c2cc(C3CC3)nc3c2c(C)nn3C2CCCCC2)c(=O)[nH]1 [Ex 110, 1-Cyclohexyl-6-cyclopropyl-N-[(4,6-dimethyl-2-oxo-1,2-dihydro-3-pyridinyl)methyl]-3-methyl-1H-pyrazolo[3,4-b]pyridine-4-carboxamide] |
| 218 | Cc1cc(C)c(CNC(=O)c2cc(-c3ccccc3)nc3c2c(Br)nn3C(C)C)c(=O)[nH]1 [Ex 123, 3-Bromo-N-[(4,6-dimethyl-2-oxo-1,2-dihydro-3-pyridinyl)methyl]-1-(1-methylethyl)-6-phenyl-1H-pyrazolo[3,4-b]pyridine-4-carboxamide] |
| 685 | Cc1cc(C)c(CNC(=O)c2cc(N3CCCCC3)nc3c2cnn3C(C)C)c(=O)[nH]1 [Ex 25, N-[(4,6-Dimethyl-2-oxo-1,2-dihydro-3-pyridinyl)methyl]-1-(1-methylethyl)-6-(1-piperidinyl)-1H-pyrazolo[3,4-b]pyridine-4-carboxamide] |
| 153 | Cc1cc(C)c(CNC(=O)c2cc(-c3cccnc3)nc3c2c(C)nn3C(C)(C)C)c(=O)[nH]1 [Ex 122, 1-(1,1-Dimethylethyl)-N-[(4,6-dimethyl-2-oxo-1,2-dihydro-3-pyridinyl)methyl]-3-methyl-6-(3-pyridinyl)-1H-pyrazolo[3,4-b]pyridine-4-carboxamide] |
| 1890 | Cc1cc(C)c(CNC(=O)c2cc(-c3ccccc3C)nc3c2cnn3C(C)C)c(=O)[nH]1 [Ex 70, N-[(4,6-Dimethyl-2-oxo-1,2-dihydro-3-pyridinyl)methyl]-1-(1-methylethyl)-6-(2-methylphenyl)-1H-pyrazolo[3,4-b]pyridine-4-carboxamide] |
| 1360 | Cc1cc(C)c(CNC(=O)c2ccnc3c2cnn3C(C)C)c(=O)[nH]1 [Ex 22, N-[(4,6-Dimethyl-2-oxo-1,2-dihydro-3-pyridinyl)methyl]-1-(1-methylethyl)-1H-pyrazolo[3,4-b]pyridine-4-carboxamide] |
| 581 | Cc1cc(C)c(CNC(=O)c2cc(-c3ccco3)nc3c2cnn3C(C)C)c(=O)[nH]1 [Ex 62, N-[(4,6-Dimethyl-2-oxo-1,2-dihydro-3-pyridinyl)methyl]-6-(2-furanyl)-1-(1-methylethyl)-1H-pyrazolo[3,4-b]pyridine-4-carboxamide] |
| 18 | Cc1cc(C)c(CNC(=O)c2cc(-c3ccc(N4CCN(C)CC4)nc3)nc3c2c(C)nn3C(C)(C)C)c(=O)[nH]1 [Ex 87, 1-(1,1-Dimethylethyl)-N-[(4,6-dimethyl-2-oxo-1,2-dihydro-3-pyridinyl)methyl]-3-methyl-6-[6-(4-methyl-1-piperazinyl)-3-pyridinyl]-1H-pyrazolo[3,4-b]pyridine-4-carboxamide] |
| 78 | COc1cncc(-c2cc(C(=O)NCc3c(C)cc(C)[nH]c3=O)c3cnn(C(C)C)c3n2)c1 [Ex 58, N-[(4,6-Dimethyl-2-oxo-1,2-dihydro-3-pyridinyl)methyl]-1-(1-methylethyl)-6-[5-(methyloxy)-3-pyridinyl]-1H-pyrazolo[3,4-b]pyridine-4-carboxamide] |
| 43 | Cc1cc(C)c(CNC(=O)c2cc(-c3ccc4c(c3)NC(=O)C4)nc3c2cnn3C(C)C)c(=O)[nH]1 [Ex 78, N-[(4,6-Dimethyl-2-oxo-1,2-dihydro-3-pyridinyl)methyl]-1-(1-methylethyl)-6-(2-oxo-2,3-dihydro-1H-indol-6-yl)-1H-pyrazolo[3,4-b]pyridine-4-carboxamide] |
| 56 | CNS(=O)(=O)c1ccc(-c2cc(C(=O)NCc3c(C)cc(C)[nH]c3=O)c3cnn(C(C)C)c3n2)cc1 [Ex 42, N-[(4,6-Dimethyl-2-oxo-1,2-dihydro-3-pyridinyl)methyl]-6-{4-[(methylamino)sulfonyl]phenyl}-1-(1-methylethyl)-1H-pyrazolo[3,4-b]pyridine-4-carboxamide] |
| 735 | Cc1cc(-c2ccccc2)c(CNC(=O)c2cc(-c3ccncc3)nc3c2cnn3C(C)C)c(=O)[nH]1 [Ex 14, 1-(1-Methylethyl)-N-[(6-methyl-2-oxo-4-phenyl-1,2-dihydro-3-pyridinyl)methyl]-6-(4-pyridinyl)-1H-pyrazolo[3,4-b]pyridine-4-carboxamide] |
